{
  "source": "paper PMC12814364",
  "about": "(Journal of the American Chemical Society, 2025)",
  "key": {"[1]": {"biological_target": "T1, HBHA110–199 (Mycobacterium tuberculosis, UniProt P9WIP9)", "assay_type": "binding"}, "[2]": {"biological_target": "T2, full-length HBHA (Mycobacterium tuberculosis, UniProt P9WIP9)", "T2 sequence (P9WIP9 1-199)": "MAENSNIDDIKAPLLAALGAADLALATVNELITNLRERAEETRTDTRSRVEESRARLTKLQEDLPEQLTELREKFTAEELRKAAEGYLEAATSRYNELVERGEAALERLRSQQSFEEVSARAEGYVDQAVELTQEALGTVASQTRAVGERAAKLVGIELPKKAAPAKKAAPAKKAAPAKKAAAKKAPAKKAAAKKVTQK", "test": "Far-UV circular dichroism of full-length HBHA with added sugar"}, "[3]": {"biological_target": "T1, HBHA110–199", "test": "ITC binding of HS hexadecasaccharides with HBHA110–199"}, "[4]": {"biological_target": "T1, HBHA110–199", "test": "Circular dichroism of HBHA110–199 with added sugar", "settings": "data not shown"}},
  "note": "Like-named read-outs stand apart in the source and are kept apart here.",
  "data": [
    {"smiles": "O=C(O)[C@@H]1O[C@@H](O[C@H]2[C@H](O)[C@@H](NS(=O)(=O)O)[C@@H](O[C@H]3[C@H](O)[C@@H](OS(=O)(=O)O)[C@H]4OC[C@@H]3O4)O[C@@H]2COS(=O)(=O)O)[C@H](OS(=O)(=O)O)[C@@H](O)[C@@H]1O[C@H]1O[C@H](COS(=O)(=O)O)[C@@H](O[C@@H]2O[C@@H](C(=O)O)[C@@H](O[C@H]3O[C@H](COS(=O)(=O)O)[C@@H](O[C@@H]4O[C@@H](C(=O)O)[C@@H](O[C@H]5O[C@H](COS(=O)(=O)O)[C@@H](O[C@@H]6O[C@@H](C(=O)O)[C@@H](O[C@H]7O[C@H](COS(=O)(=O)O)[C@@H](O[C@@H]8O[C@@H](C(=O)O)[C@@H](O[C@H]9O[C@H](COS(=O)(=O)O)[C@@H](O[C@@H]%10O[C@@H](C(=O)O)[C@@H](O[C@H]%11O[C@H](COS(=O)(=O)O)[C@@H](O[C@@H]%12O[C@@H](C(=O)O)[C@@H](O[C@H]%13O[C@H](COS(=O)(=O)O)[C@@H](O)[C@H](O)[C@H]%13NS(=O)(=O)O)[C@H](O)[C@H]%12OS(=O)(=O)O)[C@H](O)[C@H]%11NS(=O)(=O)O)[C@H](O)[C@H]%10OS(=O)(=O)O)[C@H](O)[C@H]9NS(=O)(=O)O)[C@H](O)[C@H]8OS(=O)(=O)O)[C@H](O)[C@H]7NS(=O)(=O)O)[C@H](O)[C@H]6OS(=O)(=O)O)[C@H](O)[C@H]5NS(=O)(=O)O)[C@H](O)[C@H]4OS(=O)(=O)O)[C@H](O)[C@H]3NS(=O)(=O)O)[C@H](O)[C@H]2OS(=O)(=O)O)[C@H](O)[C@H]1NS(=O)(=O)O", "note": "[compound 24]", "values": [
      {"measurement": "Kd", "setting": "[1]; Average of Repeat I P(KKAA), residue 160-164, read-out: Dissociation constant from NMR cross-peak movement, average", "value": 8700, "unit": "nM"},
      {"measurement": "Kd", "setting": "[1]; Average of Repeat II P(AKKAA), residue 165-170, read-out: Dissociation constant from NMR cross-peak movement, average", "value": 3200, "unit": "nM"},
      {"measurement": "Kd", "setting": "[1]; Average of Repeat III P(AKKAA), residue 171-176, read-out: Dissociation constant from NMR cross-peak movement, average", "value": 2900, "unit": "nM"},
      {"measurement": "Kd", "setting": "[1]; Average of Repeat IV P([…]), residue 177-186, read-out: Dissociation constant from NMR cross-peak movement, average", "value": 1400, "unit": "nM"},
      {"measurement": "Kd", "setting": "[1]; Average of Repeat V P([…]), residue 187-196, read-out: Dissociation constant from NMR cross-peak movement, average", "value": 1600, "unit": "nM"},
      {"measurement": "Kd", "setting": "[1]; from NMR cross-peak movement, read-out: average KD in the most perturbed region (residues 178–199)", "value": 1500, "unit": "nM"},
      {"measurement": "average Δδresidue (weighted chemical shift deviation) of HBHA110–199", "setting": "[1]; protein-to-sugar molar ratio 1:2, all residues", "value": 0.035, "unit": "ppm"},
      {"measurement": "Kd", "setting": "[1]; residue A163, Repeat I, read-out: Dissociation constant from NMR cross-peak movement", "value": 9500, "unit": "nM"},
      {"measurement": "Kd", "setting": "[1]; residue A164, Repeat I, read-out: Dissociation constant from NMR cross-peak movement", "value": 5400, "unit": "nM"},
      {"measurement": "Kd", "setting": "[1]; residue A166, Repeat II, read-out: Dissociation constant from NMR cross-peak movement", "value": 3200, "unit": "nM"},
      {"measurement": "Kd", "setting": "[1]; residue A169, Repeat II, read-out: Dissociation constant from NMR cross-peak movement", "value": 5500, "unit": "nM"},
      {"measurement": "Kd", "setting": "[1]; residue A170, Repeat II, read-out: Dissociation constant from NMR cross-peak movement", "value": 2500, "unit": "nM"},
      {"measurement": "Kd", "setting": "[1]; residue A172, Repeat III, read-out: Dissociation constant from NMR cross-peak movement", "value": 2200, "unit": "nM"},
      {"measurement": "Kd", "setting": "[1]; residue A175, Repeat III, read-out: Dissociation constant from NMR cross-peak movement", "value": 2300, "unit": "nM"},
      {"measurement": "Kd", "setting": "[1]; residue A176, Repeat III, read-out: Dissociation constant from NMR cross-peak movement", "value": 1400, "unit": "nM"},
      {"measurement": "Kd", "setting": "[1]; residue A178, Repeat IV, read-out: Dissociation constant from NMR cross-peak movement", "value": 800, "unit": "nM"},
      {"measurement": "Kd", "setting": "[1]; residue A181, Repeat IV, read-out: Dissociation constant from NMR cross-peak movement", "value": 1400, "unit": "nM"},
      {"measurement": "Kd", "setting": "[1]; residue A182, Repeat IV, read-out: Dissociation constant from NMR cross-peak movement", "value": 1000, "unit": "nM"},
      {"measurement": "Kd", "setting": "[1]; residue A183, Repeat IV, read-out: Dissociation constant from NMR cross-peak movement", "value": 700, "unit": "nM"},
      {"measurement": "Kd", "setting": "[1]; residue A186, Repeat IV, read-out: Dissociation constant from NMR cross-peak movement", "value": 800, "unit": "nM"},
      {"measurement": "Kd", "setting": "[1]; residue A188, Repeat V, read-out: Dissociation constant from NMR cross-peak movement", "value": 800, "unit": "nM"},
      {"measurement": "Kd", "setting": "[1]; residue A191, Repeat V, read-out: Dissociation constant from NMR cross-peak movement", "value": 1500, "unit": "nM"},
      {"measurement": "Kd", "setting": "[1]; residue A192, Repeat V, read-out: Dissociation constant from NMR cross-peak movement", "value": 2100, "unit": "nM"},
      {"measurement": "Kd", "setting": "[1]; residue A193, Repeat V, read-out: Dissociation constant from NMR cross-peak movement", "value": 1000, "unit": "nM"},
      {"measurement": "Kd", "setting": "[1]; residue K161, Repeat I, read-out: Dissociation constant from NMR cross-peak movement", "value": 12900, "unit": "nM"},
      {"measurement": "Kd", "setting": "[1]; residue K162, Repeat I, read-out: Dissociation constant from NMR cross-peak movement", "value": 6800, "unit": "nM"},
      {"measurement": "Kd", "setting": "[1]; residue K167, Repeat II, read-out: Dissociation constant from NMR cross-peak movement", "value": 1700, "unit": "nM"},
      {"measurement": "Kd", "setting": "[1]; residue K168, Repeat II, read-out: Dissociation constant from NMR cross-peak movement", "value": 3200, "unit": "nM"},
      {"measurement": "Kd", "setting": "[1]; residue K173, Repeat III, read-out: Dissociation constant from NMR cross-peak movement", "value": 1700, "unit": "nM"},
      {"measurement": "Kd", "setting": "[1]; residue K174, Repeat III, read-out: Dissociation constant from NMR cross-peak movement", "value": 6700, "unit": "nM"},
      {"measurement": "Kd", "setting": "[1]; residue K179, Repeat IV, read-out: Dissociation constant from NMR cross-peak movement", "value": 1300, "unit": "nM"},
      {"measurement": "Kd", "setting": "[1]; residue K190, Repeat V, read-out: Dissociation constant from NMR cross-peak movement", "value": 1200, "unit": "nM"},
      {"measurement": "Kd", "setting": "[1]; residue K194, Repeat V, read-out: Dissociation constant from NMR cross-peak movement", "value": 1100, "unit": "nM"},
      {"measurement": "Kd", "setting": "[1]; residue K195, Repeat V, read-out: Dissociation constant from NMR cross-peak movement", "value": 2900, "unit": "nM"},
      {"measurement": "Kd", "setting": "[1]; residue V196, Repeat V, read-out: Dissociation constant from NMR cross-peak movement", "value": 2300, "unit": "nM"},
      {"measurement": "random coil of full-length HBHA", "setting": "[2]; HBHA:compound 1:0.5", "value": 52.4, "unit": "%"},
      {"measurement": "β-sheet of full-length HBHA", "setting": "[2]; HBHA:compound 1:0.5", "value": 24.0, "unit": "%"},
      {"measurement": "α-helix of full-length HBHA", "setting": "[2]; HBHA:compound 1:0.5, far-UV CD 195–260 nm", "value": 23.6, "unit": "%"},
      {"measurement": "random coil of full-length HBHA", "setting": "[2]; HBHA:compound 1:1", "value": 51.9, "unit": "%"},
      {"measurement": "α-helix of full-length HBHA", "setting": "[2]; HBHA:compound 1:1", "value": 24.9, "unit": "%"},
      {"measurement": "β-sheet of full-length HBHA", "setting": "[2]; HBHA:compound 1:1", "value": 23.2, "unit": "%"},
      {"measurement": "random coil of full-length HBHA", "setting": "[2]; HBHA:compound 1:1.5", "value": 52.2, "unit": "%"},
      {"measurement": "α-helix of full-length HBHA", "setting": "[2]; HBHA:compound 1:1.5", "value": 24.4, "unit": "%"},
      {"measurement": "β-sheet of full-length HBHA", "setting": "[2]; HBHA:compound 1:1.5", "value": 23.4, "unit": "%"},
      {"measurement": "increase in α-helical content of bound HBHA", "setting": "[2]; estimated by Dichroweb, roughly 16 residues", "value": "approximately 8%"},
      {"measurement": "n (sugar-to-protein binding ratio)", "setting": "[3]; 25 °C, Tris buffer pH 7.6", "value": "0.27 ± 0.01"},
      {"measurement": "ΔG", "setting": "[3]; 25 °C, Tris buffer pH 7.6", "value": "–7.82 ± 0.02 kcal/mol"},
      {"measurement": "ΔH", "setting": "[3]; 25 °C, Tris buffer pH 7.6", "value": "16.00 ± 0.00", "unit": "kcal/mol"},
      {"measurement": "–TΔS", "setting": "[3]; 25 °C, Tris buffer pH 7.6", "value": "–23.85 ± 0.08 kcal/mol"},
      {"measurement": "Kd", "setting": "[3]; Tris buffer pH 7.6, 25 °C, two trials, average ± standard deviation, read-out: dissociation constant, KD", "value": "1870 ± 60", "unit": "nM"},
      {"measurement": "changes in CD spectra of HBHA110–199", "setting": "[4]", "value": "no noteworthy changes"}
    ]}
  ]
}
